Drawing on patent US6949542B2, “Dihydro-benzo[b][1,4]diazepin-2-one derivatives” (Hoffman-La Roche Inc., priority 2002, dated 2005), this text covers melting point for 34 compounds.

The compound `Cc1cc2c(cc1Cl)NC(=O)CC(c1cccc(-c3ccnc(CC(C)C)c3)c1)=N2` [Example 277, 8-Chloro-4-[3-(2-isobutyl-pyridin-4-yl)-phenyl]-7-methyl-1,3-dihydro-benzo[b][1,4]diazepin-2-one] returned a melting point of 198 °C.
The result for `CC(C)Cc1cc(-c2cccc(C3=Nc4cc(Cl)c(C(F)(F)F)cc4NC(=O)C3)c2)ccn1` [Example 278, 7-Chloro-4-[3-(2-isobutyl-pyridin-4-yl)-phenyl]-8-trifluoromethyl-1,3-dihydro benzo[b][1,4]diazepin-2-one] reads 213 °C.
The result for `CC(C)Cc1cc(-c2cccc(C3=Nc4cc(Cl)c(Cl)cc4NC(=O)C3)c2)ccn1` [Example 279, 7,8-Dichloro-4-[3-(2-isobutyl-pyridin-4-yl)-phenyl]-1,3-dihydro-benzo[b][1,4]diazepin-2-one] reads 204 °C; that for `CCOc1cc2c(cc1C(F)(F)F)NC(=O)CC(c1cccc(-c3ccnc(CC(C)C)c3)c1)=N2` [Example 280, 4-[3-(2-Isobutyl-pyridin-4-yl)-phenyl]-7-ethoxy-8-trifluoromethyl-1,3-dihydro-benzo[b][1,4]diazepin-2-one], 203 °C; that for `CC(C)Cc1cc(-c2cccc(C3=Nc4ccc(C(F)(F)F)cc4NC(=O)C3)c2)ccn1` [Example 281, 4-[3-(2-Isobutyl-pyridin-4-yl)-phenyl]-8-trifluoromethyl-1,3-dihydro benzo[b][1,4]diazepin-2-one], 181 °C.
Then `Cc1cc2c(cc1Cl)NC(=O)CC(c1cccc(-c3ccnc(CO)c3)c1)=N2` [Example 282, 8-Chloro-4-[3-(2-hydroxymethyl-pyridin-4-yl)-phenyl]-7-methyl-1,3-dihydro-benzo[b][1,4]diazepin-2-one], with 234 °C; and `O=C1CC(c2cccc(-c3ccnc(CO)c3)c2)=Nc2cc(Cl)c(C(F)(F)F)cc2N1` [Example 284, 7-Chloro-4-[3-(2-hydroxymethyl-pyridin-4-yl)-phenyl]-8-trifluoromethyl-1,3-dihydro benzo[b][1,4]diazepin-2-one], with 199 °C.
Regarding `O=C1CC(c2cccc(-c3ccnc(CO)c3)c2)=Nc2cc(Cl)c(Cl)cc2N1` [Example 285, 7,8-Dichloro-4-[3-(2-hydroxymethyl-pyridin-4-yl)-phenyl]-1,3-dihydro-benzo[b][1,4]diazepin-2-one], the melting point came to 224 °C.
Then `O=C1CC(c2cccc(-c3ccnc(CO)c3)c2)=Nc2cc(OCC(F)(F)F)c(C(F)(F)F)cc2N1` [Example 286, 4-[3-(2-Hydroxymethyl-pyridin-4-yl)-phenyl]-7-(2,2,2-trifluoro-ethoxy)-8-trifluoromethyl-1,3-dihydro-benzo[b][1,4]diazepin-2-one], with 201 °C; and `CCOc1cc2c(cc1C(F)(F)F)NC(=O)CC(c1cccc(-c3ccnc(CO)c3)c1)=N2` [Example 287, 4-[3-(2-Hydroxymethyl-pyridin-4-yl)-phenyl]-7-ethoxy-8-trifluoromethyl-1,3-dihydro-benzo[b][1,4]diazepin-2-one], with 216 °C; and `Cc1ncccc1-c1cccc(C2=Nc3ccc(-n4cccc4)cc3NC(=O)C2)c1` [Example 289, 4-[3-(2-Methyl-pyridin-3-yl)-phenyl]-8-pyrrol-1-yl-1,3-dihydro-benzo[b][1,4]diazepin-2-one], with 215 to 216 °C.
Then `Cc1cc2c(cc1Cl)NC(=O)CC(c1ccnc(-c3cccnc3)c1)=N2` [Example 291, 4-[2,3′]Bipyridinyl-4-yl-8-chloro-7-methyl-1,3-dihydro-benzo[b][1,4]diazepin-2-one], with 229 to 231 °C; and `Cc1cc2c(cc1C(F)(F)F)NC(=O)CC(c1ccnc(-c3ccncc3)c1)=N2` [Example 292, 4-[2,4′]Bipyridinyl-4-yl-7-methyl-8-trifluoromethyl-1,3-dihydro-benzo[b][1,4]diazepin-2-one], with 224 to 226 °C.
Then `Cc1cc2c(cc1Cl)NC(=O)CC(c1ccnc(-c3ccncc3)c1)=N2` [Example 293, 4-[2,4′]Bipyridinyl-4-yl-8-chloro-7-methyl-1,3-dihydro-benzo[b][1,4]diazepin-2-one], with 233 to 235 °C.
The compound `Cc1cc(-c2cc(C3=Nc4cc(C)c(Cl)cc4NC(=O)C3)ccn2)ccn1` [Example 295, 8-Chloro-7-methyl-4-(2′-methyl-[2,4′]bipyridinyl-4-yl)-1,3-dihydro-benzo[b][1,4]diazepin-2-one] yielded a melting point of 225 to 227 °C.
In turn, `Cc1cc2c(cc1Cl)NC(=O)CC(c1cccc(-c3ccncn3)c1)=N2` [Example 297, 8-Chloro-7-methyl-4-(3-pyrimidin-4-yl-phenyl)-1,3-dihydro-benzo[b][1,4]diazepin-2-one] displayed a melting point of 242 to 247 °C.
Compound `CN(C)c1cc2c(cc1C(F)(F)F)NC(=O)CC(c1cccc(-c3ccncn3)c1)=N2` [Example 298, 7-Dimethylamino-4-(3-pyrimidin-4-yl-phenyl)-8-trifluoromethyl-1,3-dihydro-benzo[b][1,4]diazepin-2-one] showed a melting point of 209 to 210 °C.
Then `O=C1CC(c2cccc(-c3ccncn3)c2)=Nc2ccc(Cl)cc2N1` [Example 299, 8-Chloro-4-(3-pyrimidin-4-yl-phenyl)-1,3-dihydro-benzo[b][1,4]diazepin-2-one], with 220 to 233 °C; and `O=C1CC(c2cccc(-c3ccncn3)c2)=Nc2cc(Cl)c(Cl)cc2N1` [Example 300, 7,8-Dichloro-4-(3-pyrimidin-4-yl-phenyl)-1,3-dihydro-benzo[b][1,4]diazepin-2-one], with 234 to 237 °C.
Then `Cc1nccc(-c2cccc(C3=Nc4cc(C)c(C(F)(F)F)cc4NC(=O)C3)c2)n1` [Example 301, 7-Methyl-4-[3-(2-methyl-pyrimidin-4-yl)-phenyl]-8-trifluoromethyl-1,3-dihydro-benzo[b][1,4]diazepin-2-one], with 230 to 232 °C.
Then `Cc1nccc(-c2cccc(C3=Nc4ccc(C(F)(F)F)cc4NC(=O)C3)c2)n1` [Example 304, 4-[3-(2-Methyl-pyrimidin-4-yl)-phenyl]-8-trifluoromethyl-1,3-dihydro-benzo[b][1,4]diazepin-2-one], with 212 to 226 °C.
On to `Cc1nccc(-c2cccc(C3=Nc4ccc(Cl)cc4NC(=O)C3)c2)n1` [Example 305, 8-Chloro-4-[3-(2-methyl-pyrimidin-4-yl)-phenyl]-1,3-dihydro-benzo[b][1,4]diazepin-2-one], for which the melting point lay in the range of 215 to 220 °C.
For the compound `Cc1nccc(-c2cccc(C3=Nc4cc(Cl)c(Cl)cc4NC(=O)C3)c2)n1` [Example 306, 7,8-Dichloro-4-[3-(2-methyl-pyrimidin-4-yl)-phenyl]-1,3-dihydro-benzo[b][1,4]diazepin-2-one], the melting point lay in the range of 241 to 242 °C.
Then `Cc1nccc(-c2cccc(C3=Nc4ccc(-n5cccc5)cc4NC(=O)C3)c2)n1` [Example 307, 4-[3-(2-Methyl-pyrimidin-4-yl)-phenyl]-8-pyrrol-1-yl-1,3-dihydro-benzo[b][1,4]diazepin-2-one], with 209 to 212 °C; and `Cc1cc(-c2cccc(C3=Nc4cc(C)c(C(F)(F)F)cc4NC(=O)C3)c2)ncn1` [Example 308, 7-Methyl-4-[3-(6-methyl-pyrimidin-4-yl)-phenyl]-8-trifluoromethyl-1,3-dihydro-benzo[b][1,4]diazepin-2-one], with 227 to 230 °C.
Then `Cc1cc(-c2cccc(C3=Nc4cc(C)c(Cl)cc4NC(=O)C3)c2)ncn1` [Example 309, 8-Chloro-7-methyl-4-[3-(6-methyl-pyrimidin-4-yl)-phenyl]-1,3-dihydro-benzo[b][1,4]diazepin-2-one], with 226 to 227 °C.
The result for `Cc1cc(-c2cccc(C3=Nc4cc(N(C)C)c(C(F)(F)F)cc4NC(=O)C3)c2)ncn1` [Example 310, 7-Dimethylamino-4-[3-(6-methyl-pyrimidin-4-yl)-phenyl]-8-trifluoromethyl-1,3-dihydro-benzo[b][1,4]diazepin-2-one] reads 232 to 236 °C; that for `Cc1cc(-c2cccc(C3=Nc4ccc(Cl)cc4NC(=O)C3)c2)ncn1` [Example 312, 8-Chloro-4-[3-(6-methyl-pyrimidin-4-yl)-phenyl]-1,3-dihydro-benzo[b][1,4]diazepin-2-one], 199 to 200 °C.
`Cc1cc(-c2cccc(C3=Nc4cc(Cl)c(Cl)cc4NC(=O)C3)c2)ncn1` [Example 313, 7,8-Dichloro-4-[3-(6-methyl-pyrimidin-4-yl)-phenyl]-1,3-dihydro-benzo[b][1,4]diazepin-2-one] registered a melting point of 220 to 222 °C.
Turning to `Cc1cc(-c2cccc(C3=Nc4ccc(-n5cccc5)cc4NC(=O)C3)c2)ncn1` [Example 314, 4-[3-(6-Methyl-pyrimidin-4-yl)-phenyl]-8-pyrrol-1-yl-1,3-dihydro-benzo[b][1,4]diazepin-2-one], the melting point lay in the range of 242 to 243 °C.
The result for `Cc1cc(-c2cccc(C3=Nc4cc(C)c(C(F)(F)F)cc4NC(=O)C3)c2)nc(N)n1` [Example 315, 4-[3-(2-Amino-6-methyl-pyrimidin-4-yl)-phenyl]-7-methyl-8-trifluoromethyl-1,3-dihydro-benzo[b][1,4]diazepin-2-one] reads 248 to 250 °C.
With `Cc1cc(-c2cccc(C3=Nc4cc(C)c(Cl)cc4NC(=O)C3)c2)nc(N)n1` [Example 316, 4-[3-(2-Amino-6-methyl-pyrimidin-4-yl)-phenyl]-8-chloro-7-methyl-1,3-dihydro-benzo[b][1,4]diazepin-2-one], the melting point lay in the range of 242 to 243 °C.
The result for `Cc1cc(-c2cccc(C3=Nc4cc(N(C)C)c(C(F)(F)F)cc4NC(=O)C3)c2)nc(N)n1` [Example 317, 4-[3-(2-Amino-6-methyl-pyrimidin-4-yl)-phenyl]-7-dimethylamino-8-trifluoromethyl-1,3-dihydro-benzo[b][1,4]diazepin-2-one] reads 250 to 253 °C; that for `CNc1nc(C)cc(-c2cccc(C3=Nc4cc(C)c(C(F)(F)F)cc4NC(=O)C3)c2)n1` [Example 318, 7-Methyl-4-[3-(6-methyl-2-methylamino-pyrimidin-4-yl)-phenyl]-8-trifluoromethyl-1,3-dihydro-benzo[b][1,4]diazepin-2-one], 241 to 243 °C.
